Like-named read-outs stand apart in the source and are kept apart here.

From patent US20110136766A1, “AURORA KINASE INHIBITORS” (Vitae Pharmaceuticals, Inc., priority 2008, published 2011) come the findings set out here.

One test has as its system MCF-7. Kind of test: CellTiter-Glo cell viability assay, MCF-7. As to conditions: Homo sapiens, read-out: MCF-7 IC50. It counts as cell-based. The text has this:
(§1) The CellTiter-Glo® Luminescent Cell Viability Assay is a homogeneous method of determining the number of viable cells in culture based on quantitation of the ATP present, which signals the presence of metabolically active cells. The homogeneous assay procedure involves addition of a single reagent directly to cells cultured in serum-supplemented medium. The homogeneous format results in cell lysis and generation of a luminescent signal proportional to the amount of ATP present. The CellTiter-Glo® Assay relies on the properties of a proprietary thermostable luciferase (Ultra-Glo. Recombinant Luciferase), which generates a stable glow-type Luminescent signal. The half-life of the luminescent signal resulting from this reaction is greater than five hours. This extended half-life eliminates the need for reagent injectors and provides flexibility for continuous or batch-mode processing of multiple plates. The unique homogeneous format reduces pipetting errors that may be introduced during the multiple steps required by other ATP-measurement methods.
(§2) 96 Well cell culture plates were seeded with 10^3 mammalian cells (Colo205, HL-60, SW620, HCT116, MCF-7 and MV-411) in 100 μl culture medium. The cells were incubated overnight prior to initiating the assay. Control wells were prepared on a plate containing medium only to obtain a value for background luminescence.
(§3) Compounds to be tested were added to experimental wells and incubated for 72 hrs (Colo205, HL-60, MV-411), 168 hrs (HCT116, SW620) or 240 hrs (MCF-7). Wells were also set up to as vehicle controls with the addition of 0.1% DMSO. At the end of the incubation period, the plates were equilibrated to room temperature for approximately 30 minutes.
(§4) Lyophilized CellTiter-Glo® Substrate and the CellTiter-Glo® Buffer were warmed to room temperature. The CellTiter-Glo® Buffer was mixed with the CellTiter-Glo® Substrate to reconstitute the lyophilized enzyme/substrate mixture. This forms the CellTiter-Glo® Reagent. The contents were mixed by gently vortexing, swirling or by inverting the contents to obtain a homogeneous solution. 100 μl of CellTiter-Glo® Reagent was added to the cell culture medium present in each well. The contents were mixed for 2 minutes on an orbital shaker to induce cell lysis. The plates were allowed to incubate at room temperature for 10 minutes to stabilize luminescent signal. The contents of the 96 well cell culture plate were then transferred to a white 96 well Optiplate (Perkin Elmer). The luminescence was recorded on Wallac 1420 VICTOR^2 V Multilabel Platereader (An integration time of 0.25-1 second per well).
(§5) 10 mM DMSO stock Compounds were serially diluted threefold in DMSO. Subsequent dilutions made into cell culture media prior to addition to cells to maintain the DMSO concentration at or below 0.1% to avoid cell toxicity.
(§6) The IC50s in Table 2 are the concentration at which 50% growth inhibition relative to control occurs.
(Cellular ATP, detected with luciferase, serves as a proxy for viable cell number.)

The next test relates to HL-60. Description: CellTiter-Glo cell viability assay, HL-60. The class given is cell-based. The conditions noted are these: Homo sapiens, read-out: HL-60 IC50.
Description: as §1, §2, §3, §4, §5, §6

For a further test, the system named is MV-411. Description: CellTiter-Glo cell viability assay, MV-411. The class given is cell-based. As to conditions: Homo sapiens, read-out: MV-411 IC50.
Description: as §1, §2, §3, §4, §5, §6

In a further test the test system is Colo205. Kind of test: CellTiter-Glo cell viability assay, Colo205. As to conditions: Homo sapiens, read-out: Colo205 IC50. It counts as cell-based.
Description: as §1, §2, §3, §4, §5, §6

Test [1] addresses T1, full-length human Aurora A (Homo sapiens, UniProt O14965).
T1 construct: The full-length human Aurora A carrying His6 tag at the N-terminus; His6 (N); purchased Invitrogen, Carlsbad, Calif
T1 sequence (O14965 1-403): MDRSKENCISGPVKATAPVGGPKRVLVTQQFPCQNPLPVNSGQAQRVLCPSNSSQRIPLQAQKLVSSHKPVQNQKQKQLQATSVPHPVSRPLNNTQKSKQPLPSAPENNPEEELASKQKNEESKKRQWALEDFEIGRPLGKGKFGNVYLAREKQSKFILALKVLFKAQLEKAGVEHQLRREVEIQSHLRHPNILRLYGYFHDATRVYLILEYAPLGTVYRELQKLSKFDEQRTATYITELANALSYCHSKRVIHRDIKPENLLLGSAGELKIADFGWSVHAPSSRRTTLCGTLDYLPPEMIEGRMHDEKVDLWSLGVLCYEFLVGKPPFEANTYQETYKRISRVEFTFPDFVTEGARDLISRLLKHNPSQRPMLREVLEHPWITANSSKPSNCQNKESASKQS
Kind of test: Aurora A phosphocellulose filter binding kinase activity assay. It counts as biochemical. The conditions noted are these: 11 nM Aurora A, 10 μM ATP, 50 μM Kemptide, 45 min; read-out: Aur-A IC50. The method, then:
(§7) Kinase activity of Aurora kinases was measured by phosphocellulose filter binding assay. The full-length human Aurora A carrying His6 tag at the N-terminus (Invitrogen, Carlsbad, Calif.) and the full-length human Aurora B (N-terminal GST fusion) co-expressed and co-purified with the His6-INCENP INBOX, aminoacids 803-918 (Carna BioSciences, Japan) were used as the enzyme in the assays. Tested compounds were diluted in DMSO and pre-incubated with the enzyme and ATP/Mg^2+ mixture for at least 10 minutes. The reaction was started by addition of the Kemptide peptide substrate (LRRASLG) and allowed to proceed for 45 min at room temperature. Each reaction in a final volume of 40 μl contained 50 μM Kemptide, 10 μM [γ-^33P]ATP (1 Ci/mmol) and either 11 nM Aurora A or 1.5 nM Aurora B/INCENP complex in the buffer containing 10 mM MgCl2, 5% DMSO, 20 mM MOPS, pH 7.2, 25 mM β-glycerol phosphate, 5 mM EGTA, 1 mM Na3VO4 and either 0.1 mg/ml of BSA and 1 mM DTT for Aurora A or 0.01% Triton-X100 and 2 mM DTT for Aurora B. The reaction was stopped with 25 μl of 5% H3PO4, and 45 μl of the mixture was transferred into a MultiScreen-PH filterplate (Millipore) pre-washed with 0.85% H3PO4. The filterplate was washed 4 times with 200 μl of 0.85% H3PO4 on a vacuum manifold. Scintillation fluid (50 μl of Ultima Gold™ LLT, PerkinElmer, Waltham, Mass.) was added to each well, and after 1-hr incubation at room temperature the plates were counted on MicroBeta (PerkinElmer, Waltham, Mass.) plate reader. […] Percent inhibition values were calculated based on the counts of the positive and negative controls, and these values were regressed against inhibitor concentration and fit into a four parameter model. From this fit the IC50 values (the inhibitor concentration at which 50% inhibition occurs) were derived as the inflection point on the semi-logarithm inhibition curve.

The target in test [2] is T2, full-length human Aurora B/INCENP complex (Homo sapiens, UniProt Q96GD4).
T2 construct: the full-length human Aurora B (N-terminal GST fusion); GST (N); purchased Carna BioSciences, Japan
T2 sequence (Q96GD4 whole entry, the tested form may be a part): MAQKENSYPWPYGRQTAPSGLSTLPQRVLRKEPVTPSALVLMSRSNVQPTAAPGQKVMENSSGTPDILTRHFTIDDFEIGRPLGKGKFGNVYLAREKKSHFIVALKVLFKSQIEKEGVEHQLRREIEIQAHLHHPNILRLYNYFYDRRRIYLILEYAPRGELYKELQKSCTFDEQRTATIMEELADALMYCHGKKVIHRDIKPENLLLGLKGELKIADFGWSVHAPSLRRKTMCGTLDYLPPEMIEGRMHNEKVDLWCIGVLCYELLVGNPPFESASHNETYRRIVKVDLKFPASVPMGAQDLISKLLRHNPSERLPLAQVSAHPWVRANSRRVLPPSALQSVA
T2 sequence (Q9NQS7 803-918 partner limits assumed): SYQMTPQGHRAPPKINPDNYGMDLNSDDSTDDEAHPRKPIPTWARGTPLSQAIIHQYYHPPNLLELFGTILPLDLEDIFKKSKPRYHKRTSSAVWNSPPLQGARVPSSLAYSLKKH
Kind of test: Aurora B phosphocellulose filter binding kinase activity assay. The class given is biochemical. As to conditions: 1.5 nM Aurora B/INCENP complex, 10 μM ATP, 50 μM Kemptide, 45 min; read-out: Aur-B IC50. Here is the method:
as §7

The subject of the next test is HCT116. Kind of test: CellTiter-Glo cell viability assay, HCT116. It counts as cell-based. As to conditions: Homo sapiens, read-out: HCT116 IC50.
Description: as §1, §2, §3, §4, §5, §6

The test system of the next test is SW620. Description: CellTiter-Glo cell viability assay, SW620. It counts as cell-based. As to conditions: Homo sapiens, read-out: SW620 IC50.
Description: as §1, §2, §3, §4, §5, §6

Setting [3] is: MCF7, Breast Cancer, 240 hrs, 50% growth inhibition relative to control.
The mark [4] stands for this setting: HL-60, Leukemia, 72 hrs, 50% growth inhibition relative to control.
[5] abbreviates: MV4-11, Leukemia, 72 hrs, 50% growth inhibition relative to control.
The mark [6] stands for this setting: COLO 205, Colorectal cancer, 72 hrs, 50% growth inhibition relative to control.
Where [7] appears, read: HCT-116, Colorectal cancer, 168 hrs, 50% growth inhibition relative to control.
The mark [8] stands for this setting: SW-620, Colorectal cancer, 168 hrs, 50% growth inhibition relative to control.

As usually defined, the IC50 is the concentration needed to halve the response being measured. As to `O=C(Cc1cc(Nc2ncnc3cc(-c4ccc(C(=O)N5CCN(CCO)CC5)cc4)ccc23)n[nH]1)Nc1cccc(F)c1` [Compound 1, N-(3-fluorophenyl)-2-(3-(7-(4-(4-(2-hydroxyethyl)piperazine-1-carbonyl)phenyl)quinazolin-4-ylamino)-1H-pyrazol-5-yl)acetamide], the IC50 in the test with MCF-7 (setting [3]) stood at 16.9 nM; in the test on HL-60 (setting [4]), 1.32 nM; in the test with MV-411 (setting [5]), 5.75 nM; in the test on Colo205 (setting [6]), 1.82 nM; in test [1] it was 1.93 nM; in test [2] it was 0.48 nM. The IC50 in the test with HCT116 (setting [7]) turned out to be 5.32 nM; in the test with SW620 (setting [8]), 12 nM.
With `CN1CCN(C(=O)c2ccc(-c3ccc4c(Nc5cc(CC(=O)Nc6cccc(F)c6)[nH]n5)ncnc4c3)cc2)CC1` [Compound 2, N-(3-fluorophenyl)-2-(3-(7-(4-(4-methylpiperazine-1-carbonyl)phenyl)quinazolin-4-ylamino)-1H-pyrazol-5-yl)acetamide], the IC50 is 8.46 nM with MCF-7 (setting [3]); 1.8 nM in the test on HL-60 (setting [4]); 5.2 nM in the test with MV-411 (setting [5]); 3.98 nM in the test with Colo205 (setting [6]); 5.07 nM in test [1]; 0.86 nM in test [2]. Further, the IC50 was 3.65 nM in the test on HCT116 (setting [7]) and 6.3 nM with SW620 (setting [8]).
Take `O=C(Cc1cc(Nc2ncnc3cc(-c4ccc(S(=O)(=O)N5CCCC5)cc4)ccc23)n[nH]1)Nc1cccc(F)c1` [Compound 3, N-(3-fluorophenyl)-2-(3-(7-(4-(pyrrolidin-1-ylsulfonyl)phenyl)quinazolin-4-ylamino)-1H-pyrazol-5-yl)acetamide]: the IC50 in the test with MCF-7 (setting [3]) worked out at 5.62 nM; with HL-60 (setting [4]), 1.08 nM; with MV-411 (setting [5]), 5.9 nM; in the test with Colo205 (setting [6]), 2.26 nM; in test [1], 6.04 nM; in test [2], 0.47 nM. For the same compound, the IC50 with HCT116 (setting [7]) worked out at 4.58 nM; in the test with SW620 (setting [8]), 2.15 nM.
With `O=C(Cc1cc(Nc2ncnc3cc(-c4ccc(C(=O)N5CCNCC5)cc4)ccc23)n[nH]1)Nc1cccc(F)c1` [Compound 4, N-(3-fluorophenyl)-2-(3-(7-(4-(piperazine-1-carbonyl)phenyl)quinazolin-4-ylamino)-1H-pyrazol-5-yl)acetamide], the IC50 with MCF-7 (setting [3]) amounted to 7.7 nM; in the test with HL-60 (setting [4]), 1.32 nM; with MV-411 (setting [5]) it was 6.05 nM; in the test on Colo205 (setting [6]), 2.11 nM; in test [1], 3.77 nM; in test [2] it was 0.71 nM. Besides, the half-inhibitory concentration (IC50) is 5.66 nM in the test with HCT116 (setting [7]) and 7.81 nM in the test on SW620 (setting [8]).
Turning to `O=C(Cc1cc(Nc2ncnc3cc(-c4ccc(S(=O)(=O)N5CC[C@H](F)C5)cc4)ccc23)n[nH]1)Nc1cccc(F)c1` [Compound 5, (S)-N-(3-fluorophenyl)-2-(3-(7-(4-(3-fluoropyrrolidin-1-ylsulfonyl)phenyl)quinazolin-4-ylamino)-1H-pyrazol-5-yl)acetamide], the IC50 in the test on MCF-7 (setting [3]) was 11.4 nM; with HL-60 (setting [4]), 1.21 nM; in the test on MV-411 (setting [5]) it was 6.4 nM; with Colo205 (setting [6]) it was 3.86 nM; in test [1] it was 7.1 nM; in test [2] it was 0.56 nM. Also, the IC50 stood at 1.9 nM with HCT116 (setting [7]) and 2.17 nM in the test with SW620 (setting [8]).
For the compound `O=C(Cc1cc(Nc2ncnc3cc(-c4ccc(S(=O)(=O)N5CC[C@@H](F)C5)cc4)ccc23)n[nH]1)Nc1cccc(F)c1` [Compound 6, (R)-N-(3-fluorophenyl)-2-(3-(7-(4-(3-fluoropyrrolidin-1-ylsulfonyl)phenyl)quinazolin-4-ylamino)-1H-pyrazol-5-yl)acetamide], the concentration for half-maximal inhibition (IC50) is 7.8 nM in the test with MCF-7 (setting [3]); 2.26 nM with HL-60 (setting [4]); 5.79 nM in the test on MV-411 (setting [5]); 3.9 nM in the test with Colo205 (setting [6]); 6.29 nM in test [1]; 0.63 nM in test [2]. The IC50 in the test with HCT116 (setting [7]) amounted to 1.9 nM; in the test with SW620 (setting [8]), 2.4 nM.
As to `CC(=O)O[C@H]1C(=O)[C@@]2(C)[C@H]([C@H](OC(=O)c3ccccc3)[C@]3(O)C[C@H](OC(=O)[C@H](O)[C@@H](NC(=O)c4ccccc4)c4ccccc4)C(C)=C1C3(C)C)[C@]1(OC(C)=O)CO[C@@H]1C[C@@H]2O` [Taxol, reference compound], the IC50 with MCF-7 (setting [3]) worked out at 0.58 nM; in the test on HL-60 (setting [4]), 2.16 nM; with MV-411 (setting [5]), 6.2 nM; with Colo205 (setting [6]), 2.54 nM; in the test on HCT116 (setting [7]), 2.04 nM; in the test on SW620 (setting [8]), 4.91 nM.
`Cc1cc(Nc2cc(N3CCN(C)CC3)nc(Sc3ccc(NC(=O)C4CC4)cc3)n2)n[nH]1` [VX-680, reference compound]: the IC50 is 31 nM in the test on MCF-7 (MCF7, 240 h); 13.8 nM in the test with HL-60 (HL-60, 72 h); 79 nM in the test on MV-411 (MV4-11, 72 h); 30.2 nM in the test on Colo205 (COLO 205, 72 h); 18 nM with HCT116 (HCT-116, 168 h); 21.8 nM with SW620 (SW-620, 168 h).
